Experimental data taken from patent publication US10300031B2, “Pharmaceutical compositions for treating chronic pain and pain associated with neuropathy” (priority 2007, dated 2019).
Several values for one entry are separate records, joined by “and”; a condition that tells them apart may be missing. Equal values may be shown once. Where a name gives a salt, the structure may show the parent alone. Read-outs that look alike come from different tables or passages of the source.

How the values were obtained:
[1] = system: fibromyalgia pain; experiment: Combination therapy in patients with fibromyalgia (Table 2, testimonies); format: in vivo, human; conditions: for Pain Relief (percent of reduction in pain), Fibromyalgia: TLI-1026 twice daily (N = 5), single agents mg/day: dextromethorphan 70, tramadol 70, gabapentin 180
[2] = system: diabetic neuropathy pain; experiment: Combination therapy in patients with diabetic neuropathy (Table 2, testimonies); conditions: for Pain Relief (percent of reduction in pain), Diabetic Neuropathy: TLI-1026 twice daily (N = 5), single agents mg/day: dextromethorphan 70, tramadol 70, gabapentin 180; for pain relief (patient or physician testimony): diabetic neuropathy patients; for side effects / tolerability: two patients with diabetic peripheral polyneuropathy
[3] = 0.2M sodium chloride; cited from earlier work
[4] = system: pain in diabetic neuropathy and fibromyalgia patients; experiment: Pooled statements on pain reduction in diabetic neuropathy and fibromyalgia patients; format: in vivo, human
[5] = system: Diabetic Neuropathy; conditions: Dose mg/day: dextromethorphan hydrobromide 400-480, tramadol hydrochloride 400, gabapentin 3600; cited from earlier work
[6] = system: Fibromyalgia; conditions: Dose mg/day: dextromethorphan hydrobromide 400-480, tramadol hydrochloride 400, gabapentin 3600; cited from earlier work
[7] = target: μ-opiate receptors (Homo sapiens, UniProt P35372); conditions: cited from earlier work
[8] = cited from earlier work; for accumulation during multiple dose treatment: multiple dose treatment with tramadol
[9] = system: diabetic neuropathy pain; conditions: human, in vivo
[10] = cited from earlier work
[11] = target: CYP1A2 (Homo sapiens, UniProt P05177); conditions: gabapentin concentrations up to 171 μg/mL; cited from earlier work
[12] = target: CYP2C9 (Homo sapiens, UniProt P11712); conditions: gabapentin concentrations up to 171 μg/mL; cited from earlier work
[13] = target: CYP2C19 (Homo sapiens, UniProt P33261); conditions: gabapentin concentrations up to 171 μg/mL; cited from earlier work
[14] = target: CYP2D6 (Homo sapiens, UniProt P10635); conditions: gabapentin concentrations up to 171 μg/mL; cited from earlier work
[15] = target: CYP2E1 (Homo sapiens, UniProt P05181); conditions: gabapentin concentrations up to 171 μg/mL; cited from earlier work
[16] = target: CYP3A4 (Homo sapiens, UniProt P08684); conditions: gabapentin concentrations up to 171 μg/mL; cited from earlier work
[17] = system: pain (arthritis, back, cancer neuropathy, tooth, lumbar, cervical spondyolosis, knee); conditions: in vivo
[18] = system: postherpetic neuralgia; conditions: oral amitriptyline; cited from earlier work
[19] = system: painful diabetic neuropathy; conditions: oral amitriptyline; cited from earlier work
[20] = system: Na+ currents in adrenal chromaffin cells; conditions: read-out: IC50, peak Na+ currents; cited from earlier work
[21] = target: cardiac Na+ channels (Homo sapiens, UniProt Q14524); conditions: cited from earlier work
[22] = target: hH1 Na+ channels (Homo sapiens, UniProt Q14524); conditions: cited from earlier work; for IC50: 0.1-100 μM
[23] = system: NF-κ-B activation in human myeloid ML-1a cells; conditions: pretreatment of ML-1a cells; dose- and time-dependent; cited from earlier work
[24] = i.v. administration, rats; cited from earlier work
[25] = oral dosing of rats, after 3 hours; cited from earlier work
[26] = 90 g cream (0.025% capsaicin) per week, 100% absorbed, 50 kg person; cited from earlier work
[27] = system: transient K+ channels in hippocampal neurons; conditions: cited from earlier work
[28] = system: pain score in patients; conditions: cited from earlier work
[29] = system: patients with diabetic peripheral neuropathy; conditions: diabetic peripheral neuropathy trials; cited from earlier work
[30] = system: patients with fibromyalgia; conditions: fibromyalgia trials, cited from earlier work

hH1 Na+ channels, sequence (Q14524 whole entry): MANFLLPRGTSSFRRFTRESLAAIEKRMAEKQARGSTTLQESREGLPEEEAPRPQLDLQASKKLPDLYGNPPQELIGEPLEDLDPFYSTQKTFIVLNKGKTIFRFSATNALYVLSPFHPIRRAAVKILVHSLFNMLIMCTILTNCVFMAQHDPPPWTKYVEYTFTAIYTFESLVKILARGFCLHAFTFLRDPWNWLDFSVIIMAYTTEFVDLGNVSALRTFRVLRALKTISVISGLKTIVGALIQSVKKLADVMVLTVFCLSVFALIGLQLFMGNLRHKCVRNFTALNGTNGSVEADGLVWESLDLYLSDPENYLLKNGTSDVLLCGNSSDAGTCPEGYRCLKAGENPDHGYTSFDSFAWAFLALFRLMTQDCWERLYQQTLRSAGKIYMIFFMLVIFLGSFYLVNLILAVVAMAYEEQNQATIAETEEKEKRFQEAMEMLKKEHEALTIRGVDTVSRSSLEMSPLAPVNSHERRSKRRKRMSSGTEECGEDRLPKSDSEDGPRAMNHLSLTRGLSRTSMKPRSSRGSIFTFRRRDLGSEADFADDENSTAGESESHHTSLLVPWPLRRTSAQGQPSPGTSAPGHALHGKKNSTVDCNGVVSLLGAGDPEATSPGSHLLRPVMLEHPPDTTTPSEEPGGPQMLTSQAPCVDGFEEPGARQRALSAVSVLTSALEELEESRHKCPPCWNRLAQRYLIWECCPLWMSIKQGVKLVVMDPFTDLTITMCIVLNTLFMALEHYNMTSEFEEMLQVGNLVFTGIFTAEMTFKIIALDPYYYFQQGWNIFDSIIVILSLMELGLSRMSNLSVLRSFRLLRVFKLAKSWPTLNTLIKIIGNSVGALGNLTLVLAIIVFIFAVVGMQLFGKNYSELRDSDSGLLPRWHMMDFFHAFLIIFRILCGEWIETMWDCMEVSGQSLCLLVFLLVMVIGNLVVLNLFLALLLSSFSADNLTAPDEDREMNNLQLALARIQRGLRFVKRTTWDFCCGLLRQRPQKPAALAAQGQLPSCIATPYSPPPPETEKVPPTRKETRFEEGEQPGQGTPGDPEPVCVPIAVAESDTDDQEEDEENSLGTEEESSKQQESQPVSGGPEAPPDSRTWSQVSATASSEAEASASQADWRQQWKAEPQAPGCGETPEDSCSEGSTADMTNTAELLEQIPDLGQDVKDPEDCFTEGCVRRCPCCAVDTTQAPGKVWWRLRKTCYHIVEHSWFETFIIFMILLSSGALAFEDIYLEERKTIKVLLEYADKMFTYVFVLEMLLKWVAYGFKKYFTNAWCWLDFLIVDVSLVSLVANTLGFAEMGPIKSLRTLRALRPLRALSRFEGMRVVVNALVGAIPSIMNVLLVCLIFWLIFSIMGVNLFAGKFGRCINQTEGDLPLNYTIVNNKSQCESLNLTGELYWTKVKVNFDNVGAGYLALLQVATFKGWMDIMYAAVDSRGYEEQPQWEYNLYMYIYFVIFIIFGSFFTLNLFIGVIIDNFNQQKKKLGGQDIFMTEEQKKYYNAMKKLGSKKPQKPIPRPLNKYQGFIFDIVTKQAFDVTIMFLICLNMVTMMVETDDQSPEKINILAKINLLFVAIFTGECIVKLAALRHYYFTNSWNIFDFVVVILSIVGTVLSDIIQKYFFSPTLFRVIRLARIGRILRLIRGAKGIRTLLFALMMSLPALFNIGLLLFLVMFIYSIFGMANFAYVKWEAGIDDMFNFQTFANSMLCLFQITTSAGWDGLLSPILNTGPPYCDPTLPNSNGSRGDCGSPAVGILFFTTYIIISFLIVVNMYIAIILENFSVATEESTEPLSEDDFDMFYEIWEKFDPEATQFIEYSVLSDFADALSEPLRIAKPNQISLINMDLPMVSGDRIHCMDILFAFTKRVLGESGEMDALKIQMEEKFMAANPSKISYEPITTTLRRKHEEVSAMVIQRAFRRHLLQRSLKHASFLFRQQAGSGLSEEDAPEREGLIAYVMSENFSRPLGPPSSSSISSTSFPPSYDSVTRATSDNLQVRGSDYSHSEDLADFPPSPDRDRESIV
μ-opiate receptors, sequence (P35372 whole entry): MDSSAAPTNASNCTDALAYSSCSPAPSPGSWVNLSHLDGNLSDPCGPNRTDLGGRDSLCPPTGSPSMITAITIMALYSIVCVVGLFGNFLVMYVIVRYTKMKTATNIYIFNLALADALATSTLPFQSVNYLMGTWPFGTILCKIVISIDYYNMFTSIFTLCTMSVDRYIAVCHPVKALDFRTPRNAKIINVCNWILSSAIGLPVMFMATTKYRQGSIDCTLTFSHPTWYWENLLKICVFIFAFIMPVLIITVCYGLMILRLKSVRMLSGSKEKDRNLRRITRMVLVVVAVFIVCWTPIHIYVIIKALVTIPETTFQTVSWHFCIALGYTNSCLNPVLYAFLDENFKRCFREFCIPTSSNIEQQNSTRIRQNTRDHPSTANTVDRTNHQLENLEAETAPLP
cardiac Na+ channels, sequence (Q14524 whole entry): as the sequence (Q14524 whole entry) above
CYP2C9, sequence (P11712 whole entry): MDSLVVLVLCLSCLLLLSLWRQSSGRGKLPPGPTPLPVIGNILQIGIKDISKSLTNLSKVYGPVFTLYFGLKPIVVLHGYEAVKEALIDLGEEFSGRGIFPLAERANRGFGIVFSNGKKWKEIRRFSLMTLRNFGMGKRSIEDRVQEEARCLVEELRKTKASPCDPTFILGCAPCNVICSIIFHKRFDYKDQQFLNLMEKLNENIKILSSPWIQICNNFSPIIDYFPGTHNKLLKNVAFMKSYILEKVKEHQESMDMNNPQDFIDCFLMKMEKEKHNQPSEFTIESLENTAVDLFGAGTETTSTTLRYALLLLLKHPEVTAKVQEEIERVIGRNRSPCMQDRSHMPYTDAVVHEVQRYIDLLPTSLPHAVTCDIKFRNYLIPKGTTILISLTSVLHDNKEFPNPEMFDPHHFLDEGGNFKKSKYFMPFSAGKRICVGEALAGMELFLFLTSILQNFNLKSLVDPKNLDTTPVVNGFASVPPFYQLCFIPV

With `COc1ccc2c(c1)[C@]13CCCC[C@@H]1[C@H](C2)N(C)CC3` the “Pain Relief (percent of reduction in pain), Fibromyalgia” value [1] was <10% and the “Pain Relief (percent of reduction in pain), Diabetic Neuropathy” value [2] was <10%.
In the case of `COc1ccc(C(CN(C)C)C2(O)CCCCC2)cc1` (racemic) [Venlafaxine hydrochloride, (R/S)-1-[2-(dimethylamino)-1-(4-methoxyphenyl)ethyl]cyclohexanol], the “octanol:water partition coefficient” value [3] is listed as 0.43.
For `COc1cccc(C2(O)CCCCC2CN(C)C)c1` (single isomer, unassigned) [Tramadol Hydrochloride, (1R,2R or 1S,2S)-(dimethylaminomethyl)-1-(3-methoxyphenyl)-cyclohexanol], the “Pain Relief (percent of reduction in pain), Fibromyalgia” value [1] was <10%, the “pain relief (patient or physician testimony)” value ([1]; fibromyalgia patients) was “moderate relief” and the reduction in pain ([4]; 400 mg of tramadol per day, patients with diabetic neuropathy and fibromyalgia) was 30-40%. For the same compound, the “Pain Relief (percent of reduction in pain), Diabetic Neuropathy” value [5] was <35 (Sindrup 1999) percent and <35%, the “Pain Relief (percent of reduction in pain), Fibromyalgia” value [6] was <30 (Biasi 1998; percent and the “affinity for μ-opiate receptors relative to dextromethorphan” value [7] was “equivalent”. For the same compound, the “affinity for μ-opiate receptors, fold less than codeine” value [7] was 10 fold, the “affinity for μ-opiate receptors, fold less than d-propoxyphene” value [7] was 100 fold and the “affinity for μ-opiate receptors, fold less than morphine” value [7] was 6,000 fold. The “time to peak serum concentrations” value ([8]; after oral administration) was ≤ 2 h, the “accumulation during multiple dose treatment” value [8] was “approximately 2 fold” and the “duration of the analgesic effect” value ([8]; single oral dose of tramadol 100 mg) was “about 6 hours”. For the same compound, the “Pain Relief (percent of reduction in pain), Diabetic Neuropathy” value [2] was <10%.
In the case of `COc1ccc2c(c1)[C@]13CCCC[C@@H]1[C@H](C2)N(C)CC3` [Dextromethorphan Hydrobromide], the “Pain Relief (percent of reduction in pain), Diabetic Neuropathy” value [5] is given as <50 (Sang 2002) percent and <50% and the “Pain Relief (percent of reduction in pain), Fibromyalgia” value [6] is given as <40 (Staud 2005) percent.
With `CN(C)CCC=C1c2ccccc2CCc2ccccc21` [Elavil] the “side effects / tolerability” value [9] was “substantial, negative side effects” and the “pain relief (patient or physician testimony)” value [2] was “no substantial pain relief”.
In the case of `NCC1(CC(=O)O)CCCCC1` [Gabapentin], the “Pain Relief (percent of reduction in pain), Fibromyalgia” value [1] is given as <10%, the “relief from pain with prior therapy (physician testimony)” value ([4]; up to 1600 mg per day, patients with diabetic neuropathy or fibromyalgia) is given as “partial and marginal relief” and the “Pain Relief (percent of reduction in pain), Diabetic Neuropathy” value [5] is given as <50 (Marchettini percent and <50%. For the same compound, the “Pain Relief (percent of reduction in pain), Fibromyalgia” value [6] was <50 (Lesley 2007) percent, the bioavailability ([10]; 900 mg/day given in 3 divided doses) was “approximately 60%” and the bioavailability ([10]; 1200 mg/day given in 3 divided doses) was ~47%. The bioavailability ([10]; 2400 mg/day given in 3 divided doses) was ~34%, the bioavailability ([10]; 3600 mg/day given in 3 divided doses) was ~33% and the bioavailability ([10]; 4800 mg/day given in 3 divided doses) was ~27%. The “increase in AUC and Cmax with food” value ([10]; food effect) was 14%, the “bound to plasma protein” value ([10]; in vivo) was “Less than 3%” and the “steady-state predose (Cmin) concentration in cerebrospinal fluid, % of corresponding plasma concentrations” value ([10]; patients with epilepsy) was “approximately 20%”. The “inhibition of CYP1A2” value [11] was “No inhibition”, the “inhibition of CYP2C9” value [12] was “No inhibition” and the “inhibition of CYP2C19” value [13] was “No inhibition”. The “inhibition of CYP2D6” value [14] was “No inhibition”, the “inhibition of CYP2E1” value [15] was “No inhibition” and the “inhibition of CYP3A4” value [16] was “No inhibition”. The “Pain Relief (percent of reduction in pain), Diabetic Neuropathy” value [2] was <10%, the “pain relief (patient or physician testimony)” value ([2]; listed as Neurontin) was “no substantial pain relief” and the “pain relief (patient or physician testimony)” value ([2]; listed as Nurontin) was “only curb the pain”. The “side effects / tolerability” value [2] was “substantial, negative side effects”.
In the case of `CC(C)C[C@H](CN)CC(=O)O` [Lyrica], the “pain relief (patient or physician testimony)” value [2] is reported as “only minimal resolution of symptoms” and the “side effects / tolerability” value [2] is reported as “substantial, negative side effects”.
For `CN(C)C[C@H]1CCCC[C@]1(O)c1cccc(O)c1` [M1 derivative], the half-life ([8]; after a single oral dose of 100 mg) is listed as 9 h and the “accumulation during multiple dose treatment” value [8] is listed as “approximately 2 fold”.
For `CCCC(C)(COC(N)=O)COC(=O)NC(C)C` (stereo not shown) [Soma, Carisoprodol], the “pain relief (testimony)” value [17] was “only seemed to mask the pain” and the side effects [17] was “quite drowsy”.
For `CN(C)CCC=C1c2ccccc2CCc2ccccc21` [amitriptyline], the “share of patients with a good or moderate response” value [18] is given as “about two-thirds”, the “share of patients with a good or moderate response” value [19] is given as “three-quarters” and the IC50 [20] is given as 20.2 µM. The “use-dependent block of Na+ current” value ([21]; 0.4 μM, repetitive pulses at a frequency of 5 Hz, cardiac myocytes) was “profound use-dependent block”, the “time constant of recovery from the use-dependent block” value ([21]; cardiac Na+ channels) was 13.6 s and the “use-dependent block during repetitive pulses” value ([22]; 1 μM, 5 Hz) was ~55%. The IC50 ([22]; inactivated channels, n=7, read-out: IC50, tonic block of inactivated hH1 channels) was 0.58 ± 0.03 µM and the IC50 ([22]; resting channels, n=9, read-out: IC50, tonic block of resting hH1 channels) was 24.8 ± 2 µM.
For `COc1cc(CNC(=O)CCCCC=CC(C)C)ccc1O` [capsaicin, 8-methyl-N-vanillyl-6-nonenamide], the “effect on TNF-mediated activation of NF-κ-B” value [23] is given as “blocked TNF-mediated activation of NF-κ-B”, the “time to distribution to brain, spinal cord, liver and blood” value [24] is given as ≤ 20 min and the “absorption in the jejunum” value [25] is given as 85%. For the same compound, the estimated daily exposure [26] was 0.064 mg/kg.
For `CN(C)CCCN1c2ccccc2CCc2ccccc21` [imipramine], the IC50 [27] is listed as ~6 µM.
For `CC(C)C[C@H](CN)CC(=O)O` [pregabalin], the “endpoint mean pain score and proportion with at least a 50% reduction in pain score” value ([28]; 8-week study, 50 and 100 mg three times a day) is given as “statistically significantly improved”, the “endpoint mean pain score and proportion with at least a 50% reduction in pain score” value ([28]; 8-week study, 100 or 200 mg three times a day, doses assigned by creatinine clearance) is given as “statistically significantly improved” and the “endpoint mean pain score and proportion with at least a 50% reduction in pain score” value ([28]; 13-week study, 75, 150, 300 mg twice daily, creatinine clearance greater than 60 mL/min, all doses) is given as “statistically significantly improved”. The “endpoint mean pain score and proportion with at least a 50% reduction in pain score” value ([28]; 100 and 200 mg three times a day) was “statistically significantly improved”, the “discontinuation due to dizziness” value [29] was 3% and the “discontinuation due to somnolence” value [29] was 2%. For the same compound, the “patients who discontinued prematurely due to adverse reactions” value [29] was 9%, the “withdrawal due to each of asthenia, confusion, peripheral edema” value [29] was “approximately 1%” and the “patients who discontinued prematurely due to adverse reactions” value ([30]; 150-600 mg/day) was 19%. For the same compound, the “discontinuation due to dizziness” value [30] was 6%, the “discontinuation due to somnolence” value [30] was 3% and the “withdrawal due to each of fatigue, headache, balance disorder, weight increased” value [30] was “approximately 1%”.
